Marks after values point to notes of the source that are not given here.

The target in test [1] is T1, Porcine Pancreatic Lipase (Sus scrofa, UniProt P00591).
T1 sequence (P00591 1-450): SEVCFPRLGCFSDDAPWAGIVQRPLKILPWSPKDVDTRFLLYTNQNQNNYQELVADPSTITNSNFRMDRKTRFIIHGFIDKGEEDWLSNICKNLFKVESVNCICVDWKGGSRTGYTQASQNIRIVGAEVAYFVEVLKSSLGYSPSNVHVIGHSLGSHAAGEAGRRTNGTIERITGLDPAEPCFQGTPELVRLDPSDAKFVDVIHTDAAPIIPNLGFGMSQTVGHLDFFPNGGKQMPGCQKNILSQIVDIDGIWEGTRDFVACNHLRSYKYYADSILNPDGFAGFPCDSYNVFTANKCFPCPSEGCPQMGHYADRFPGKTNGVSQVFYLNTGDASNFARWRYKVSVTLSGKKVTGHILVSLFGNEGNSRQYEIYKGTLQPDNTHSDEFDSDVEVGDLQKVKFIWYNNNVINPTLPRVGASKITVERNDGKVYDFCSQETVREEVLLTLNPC
The test is described as follows: Anti-lipase assay (triolein emulsion). Format: biochemical. Conditions: Sample Concentration: 1.2 mg/ml; 37 °C, 30 min. As to the method:
A suspension containing 1% (V/V) of triolein and 1% (V/V) of tween 40 in 0.1M phosphate buffer (pH-8) was prepared and emulsified. The assay was initiated by adding 800µl of the Triolein emulsion to 200µl of Porcine Pancreatic Lipase (0.5 g Pancreatic Lipase in 15 ml of 0.1 M phosphate buffer at pH-8) and 200 µl of the HC extract (100 µg/ml concentration). The resultant mixture was mixed and the absorbance was measured immediately at 450 nm (T^0). The mixtures were then incubated at 37 °C for 30 min and the absorption was measured at 450 nm (T^30). Inhibition % = {A(cont)−A(test) × 100; A(cont)} [formula] where: • A(cont) - is the absorbance of the control (TC^0-TC^30) • A(test) - is the absorbance of the sample test /standard (T^0-T^30) (the HC, mangiferin and quercetin)

The test system of another test is high fat diet fed rats. The test can be described thus: Anti-obesity activity in high fat diet fed rats. Type of test: in vivo, Male Wistar rats. Conditions: male rats, Orlistat 30 mg/kg (Group III). On the procedure: Objective: The objective was to investigate the effect of the HC against high fat diet fed rats. Animals: Male Wistar rats (160 to 200 g); No of animals: 36; Housing: 3/ cage, 12 hrs light/dark cycle; Temperature: 25±2°c; Model & Composition of the Diet: High fat diet in rats: 25% Lard, 5% Soyabean oil; 5% starch; 65% Normal commercial available rat feed; Groups: Male Wistar rats were divided into six groups with six animals in each group [table]

Test [2] can be described thus: Hydrogen peroxide (H2O2) scavenging activity. Format: biochemical. As to the method: Hydrogen peroxide scavenging activity of the HC was estimated in this study where initially, HC solutions were prepared at different concentrations in distilled water and the resultant solutions were mixed in 0.6 ml of 40 mM H2O2 solution prepared in phosphate buffer (0.1 M pH 7.4) and incubated for 10 min. The absorbance was measured at 230 nm against a blank solution containing H2O2. Similar procedure was repeated for HC, Mangiferin and Quercetin. The amount of hydrogen peroxide radical inhibited was calculated using the following equation. The result is expressed as % H2O2 radical scavenging activity. H2 O2 radical scavenging activity = {(Abs control−Abs sample) × 100; (Abs control)} [formula] where: • Abs control - Absorbance of H2O2 radical • Abs sample - Absorbance of sample extract/ standard (the HC, mangiferin and quercetin)

Test [3] in a line: Superoxide Dismutase (SOD) activity / superoxide anion scavenging (NBT/NADH/PMS). Format: biochemical. Conditions: 100 µg/ml (method). As to the method: The superoxide anion scavenging activity of the HC was measured in this test. 1 ml (156 µM) of Nitro blue tetrazolium (NBT), 1 ml (468 µM) of nicotinamide adenine dinucleotide (NADH) and 3 ml of the HC at 100 µg/ml concentration were admixed in phosphate buffer (pH 7.4). The reaction was started by adding 100 µl of phenazine methosulfate (PMS) (0.18mg/ml) and the mixture was incubated at 25°C for 5 min followed by measuring the absorbance at 560 nm. Similar solutions were prepared for quercetin and mangiferin and the percentage of inhibition was calculated by using the formula provided herein-below; the result was expressed as % superoxide dismutase scavenging activity. % superoxide dismutase inhibition = {(Abs control−Abs sample) × 100; Abs control} [formula] where: • Abs control - Absorbance of control • Abs sample - Absorbance of sample extract/ standard (the HC, mangiferin and quercetin)

A short description of test [4]: Lipid peroxidation inhibitory assay (TBARS). Format: biochemical. The settings on record: Sample Concentration: 100-500µ g/ml. On the procedure: A modified Thiobarbituric acid reactive species (TBARS) assay (Ohkowa et al., 1979) is used to measure lipid peroxidation formed using egg yolk homogenate as lipid rich media (Ruberto et al., 2000).
Take 0.5ml of egg homogenate (10%in distilled water) and 0.1 ml of test sample in the concentration range 100-500µ g/ml in a test tube and volume made up to 1 ml by adding distilled water. Finally add 0.05 ml ferrous sulphate (0.07M) to the above mixture and incubate for 30 min to induce the lipid peroxidation. Thereafter add 1.5 ml of 20% acetic acid (pH 3.5) and 1.5 ml of (0.8%in 1.1% SDS) TBA and 0.05 ml (20%) TCA then heated in boiling water bath for 60 min. After cooling 5 ml of butanol will be added to all the test tubes and centrifuged at 3000 rpm for 10 min. Measure the absorbance of the organic upper layer at 532 nm. The percentage inhibition of lipid peroxidation calculated from the formula, % Inhibition = ((Abcontrol−Abtest sample)*100)/(Abcontrol) [formula] where: • Ab (cont) - is the absorbance of the control • Ab (test sample) - is the absorbance of the test sample /standard Table 12 Lipid peroxidation inhibitory assay test results

`CCCCCCCCCCC[C@@H](C[C@@H]1OC(=O)[C@H]1CCCCCC)OC(=O)[C@H](CC(C)C)NC=O` [Orlistat] displayed an inhibition at 1200 µg/mL in test [1] of 75.3%. Further, the Initial weight in the test on high fat diet fed rats (baseline, in g (unit assumed)) is listed as 182.00±0.96. Also, in the test with high fat diet fed rats, the “Atherogenic Index” value was 1.39±0.15***^b, the Average food intake is 13.45±0.28^nsb g/rat, the BAT is given as 0.28± 0.01^nsb and the “Difference in body weight gain” value was 79.82±2.58***^b. Further, in the test on high fat diet fed rats, the “Epididymal fat pad Left” value was 0.52± 0.03^nsb, the “Epididymal fat pad Right” value is on record as 0.55± 0.02^nsb, the “Fecal fatty acid estimation” value was 4.1±0.26*^b and the Insulin is reported as 0.15±0.005^nsb mU/L. In the test on high fat diet fed rats, the “Liver (organ weight)” value is on record as 2.8±0.08 ***^b, the Liver triglycerides is on record as 87.77±2.28*^b, the Mesenteric fat is 1.02±0.07 ^nsb and the “Perirenal fat pad tissue Left” value is reported as 0.77± 0.08*^b. In addition, in the test on high fat diet fed rats, the “Perirenal fat pad tissue Right” value was 0.77±0.08*^b and the “serum Glucose” value is 92.00±2.89**^b mg/dL. The molecule also registered a Final weight in the test with high fat diet fed rats (in g (unit assumed)) of 261.80±2.53. In addition, in the test with high fat diet fed rats (serum), the HDL-c is given as 21.72±1.22**^b mg/dL, the LDL-c is given as 13.20±1.71**^b mg/dL, the Total cholesterol is recorded as 50.91±0.62***^b mg/dL and the Triglyceride is 79.96±1.13***^b mg/dL.

With `O=c1c(O)c(-c2ccc(O)c(O)c2)oc2cc(O)cc(O)c12` [Quercetin (Standard), Quercetin], the H2O2 scavenging activity in test [2] (10 µg/ml) was found to be 5.6%; in test [2] (20 µg/ml), 14.55%; in test [2] (30 µg/ml), 18.86%; in test [2] (40 µg/ml), 33.96%. Besides, the “SOD activity % Inhibition” value in test [3] is on record as 51.03%. The “Lipid peroxidation inhibitory assay % inhibition” value in test [4] amounted to 53.44%.

Consider `O=c1c2cc(O)c(O)cc2oc2cc(O)c([C@@H]3O[C@H](CO)[C@@H](O)[C@H](O)[C@H]3O)c(O)c12` [Mangiferin 98%, Mangiferin], for which testing at 1200 µg/mL in test [1] gave an inhibition of 41.8%.
